# Square brackets hold non-standard residues; d marks the D form. Peptide text beside a SMILES is read from it. * marks the point of attachment. Mcc = 7-methoxycoumarin-3-carboxyl, COc1ccc2cc(C(=O)*)c(=O)oc2c1; Sta = CC(C)C[C@H](N)[C@@H](O)CC(=O)O; Isovaleryl = CC(C)CC(=O)*
# Key:
# [1] = target: T1, MCF-7/6 cell conditioned media trouase (Homo sapiens, UniProt P52888); assay: Thiol activation of MCF-7/6 conditioned medium; type: biochemical; settings: 1 mM DTT, 30 minutes pre-incubation
# T1 construct: MCF-7/6 conditioned medium was pre-incubated for 30 minutes at room temperature with dithiothreitol (DTT); endogenous in cells; host or cells: MCF-7/6 conditioned medium
# [2] = target: T2, MCF-7/6 cell homogenate trouase (Homo sapiens, UniProt P52888); assay: Inhibition of MCF-7/6 cell homogenate trouase activity; type: biochemical
# T2 construct: the cells (approximately 300 μL wet) were homogenized by grinding in 1.7 mL 10 mM pH 7.2 HEPES buffer; endogenous in cells; host or cells: MCF-7/6 (breast carcinoma)
# [3] = Acute toxicity of N-capped prodrugs, intravenous bolus in mice; type: in vivo; settings: intravenous bolus of 250 mg/kg (Dox-HCl eq.), three to five mice per group
# HL-60 cells = assay: 3H-thymidine incorporation proliferation assay; type: cell-based; settings: 24 hours
# Experimental: Promyelocytic leukemia cells, HL-60, were cultured in RPMI media containing 10% heat inactivated fetal calf serum (FCS). On the day of the study, the cells were collected, washed and resuspended at a concentration of 0.5×10^6 cells/ml in RPMI containing 10% FCS. 100 μl/well of cell suspension was added to 96 well plates. […] Finally, 10 μl of a 100 μCi/ml ^3H-thymidine was added per well and the plates were incubated for 24 hours. The plates were harvested using a 96 well Harvester (Packard Instruments) and counted on a Packard Top Count counter. Four parameter logistic curves were fitted to the ^3H-thymidine incorporation as a function of drug molarity using Prism software to determine IC50 values.
# [4] = target: T3, partially purified trouase preparation (Homo sapiens, UniProt P52888); assay: Extent of cleavage by partially purified trouase preparation (Example 14); type: biochemical; settings: 12.5 μg/mL, 2 hr, 37° C.
# T3 construct: The fractions containing the highest activity levels were pooled (fractions #43-46); host or cells: HeLa
# MCF 7/6 cell homogenate = assay: Extent of cleavage by cell homogenate (Example 14); type: biochemical, human; settings: 12.5 μg/mL, 2 hr, 37° C.
# HeLa cell trouase (F1) = target: T4, HeLa cell trouase (F1) (Homo sapiens, UniProt P52888); assay: Rates of hydrolysis by partially purified HeLa cell trouase (F1); type: biochemical; settings: 10 μg/mL substrate, pH 7.2 10 mM HEPES, 100 μM MnCl2, 37° C.; Suc-βAla-Leu-Ala-Leu-Dox = 1.0
# T4 construct: The fractions containing the highest activity levels were pooled (fractions #43-46); host or cells: HeLa
# [5] = target: T5, recombinant rat TOP (rRTOP) (Rattus norvegicus, UniProt P24155); assay: Rates of hydrolysis by recombinant rat TOP; type: biochemical; settings: for Rate of hydrolysis TOP: 10 μg/mL substrate, pH 7.2 10 mM HEPES, 100 μM MnCl2, 37° C., Suc-βAla-Leu-Ala-Leu-Dox = 1.0
# T5 construct: made in house; host or cells: E. coli
# [6] = Single dose Maximum Tolerated Dose (SD-MTD) study
# LS174T tumors = assay: LS174T xenograft, five weekly intravenous doses (Example 17)
# LS174T tumor = settings: all dose regimens, Q7D×5
# Excerpt: Statistically significant from vehicle control group: *: p<0.05; **: p<0.01 (unpaired t-test).
# MX-1 tumors = type: in vivo, mice
# Experimental: MX-1 tumors which are moderately doxorubicin-sensitive, human breast carcinoma xenografts, were implanted subcutaneously (s.c.) and mice were weighed and tumors were measured (by caliper) at least once a week prior to start of dosing (Day 0), then twice a week during the study. Immediately before the start of dosing (Study Day −2 to Day 0), mice were randomized to various groups based on the weight of the tumors. Mice were euthanized after the tumors reached a cutoff weight of 1.5 g (cancer endpoint). Studies were terminated at Day 60.
# Porcine Kidney CD10 = assay: Hydrolysis by purified CD10; type: biochemical; settings: 12.5 μg/mL, 37° C., pH 7.4, 10 hr
# [7] = target: T6, HeLa cell Fraction 1 trouase (Homo sapiens, UniProt P52888); assay: Inhibition of Suc-βAla-Leu-Ala-Leu-Dox hydrolysis by HeLa cell Fraction 1; type: biochemical; settings: 3 μM
# T6 construct: The fractions containing the highest activity levels were pooled (fractions #43-46); host or cells: HeLa
# T6 sequence (P52888 whole entry): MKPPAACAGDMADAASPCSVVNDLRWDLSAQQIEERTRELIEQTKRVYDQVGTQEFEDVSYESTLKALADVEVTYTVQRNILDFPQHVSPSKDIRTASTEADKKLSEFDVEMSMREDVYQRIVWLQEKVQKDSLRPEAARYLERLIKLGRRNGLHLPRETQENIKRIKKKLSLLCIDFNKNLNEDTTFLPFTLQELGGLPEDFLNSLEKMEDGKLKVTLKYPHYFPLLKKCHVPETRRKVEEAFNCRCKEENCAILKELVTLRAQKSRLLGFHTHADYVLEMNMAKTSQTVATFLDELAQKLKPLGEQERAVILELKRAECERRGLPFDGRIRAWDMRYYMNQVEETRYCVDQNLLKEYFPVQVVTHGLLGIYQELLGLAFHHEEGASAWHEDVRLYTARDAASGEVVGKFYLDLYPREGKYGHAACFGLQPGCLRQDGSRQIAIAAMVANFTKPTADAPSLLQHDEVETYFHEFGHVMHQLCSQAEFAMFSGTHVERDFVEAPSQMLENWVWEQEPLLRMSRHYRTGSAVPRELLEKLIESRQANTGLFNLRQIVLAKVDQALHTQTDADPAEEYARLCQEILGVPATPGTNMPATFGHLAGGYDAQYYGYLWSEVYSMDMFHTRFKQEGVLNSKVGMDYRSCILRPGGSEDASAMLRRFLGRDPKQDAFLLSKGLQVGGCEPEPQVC
# T5 sequence (P24155 whole entry): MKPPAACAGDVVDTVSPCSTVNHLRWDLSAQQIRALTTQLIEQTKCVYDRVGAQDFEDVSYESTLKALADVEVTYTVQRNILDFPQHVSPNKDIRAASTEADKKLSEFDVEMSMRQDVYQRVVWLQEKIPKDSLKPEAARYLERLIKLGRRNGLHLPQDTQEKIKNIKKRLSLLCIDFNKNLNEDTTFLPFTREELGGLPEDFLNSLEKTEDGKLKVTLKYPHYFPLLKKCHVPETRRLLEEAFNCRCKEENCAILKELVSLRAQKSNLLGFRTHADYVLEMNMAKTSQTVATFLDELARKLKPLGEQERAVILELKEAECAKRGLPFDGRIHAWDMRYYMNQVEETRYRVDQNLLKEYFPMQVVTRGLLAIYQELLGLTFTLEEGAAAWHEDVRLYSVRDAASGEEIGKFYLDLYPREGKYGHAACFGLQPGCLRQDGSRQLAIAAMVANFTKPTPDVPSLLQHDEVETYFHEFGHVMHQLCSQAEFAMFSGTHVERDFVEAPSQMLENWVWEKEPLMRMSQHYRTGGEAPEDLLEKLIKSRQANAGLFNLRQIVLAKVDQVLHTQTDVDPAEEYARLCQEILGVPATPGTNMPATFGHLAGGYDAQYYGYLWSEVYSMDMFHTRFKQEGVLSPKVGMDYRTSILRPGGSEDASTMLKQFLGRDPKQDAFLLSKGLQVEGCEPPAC
# T2 sequence (P52888 whole entry): as the sequence (P52888 whole entry) above
# T4 sequence (P52888 whole entry): as above
# T3 sequence (P52888 whole entry): as above
# T1 sequence (P52888 whole entry): as above
molecule,measurement,setting,value
"O[C@H](CS)[C@H](O)CS (racemic) [DTT, dithiothreitol]",activation of Suc-βAla-Leu-Ala-Leu-Dox hydrolysis,[1],tenfold activation
"c1cnc2c(c1)ccc1cccnc12 [1,10 phenanthroline]",trouase activity inhibition,"[2]; 2 mM 1,10 phenanthroline",9 fold
CCCNC(=O)[C@H]1O[C@@H]1C(=O)N[C@H](C(=O)N1CCC[C@H]1C(=O)O)[C@@H](C)CC [CA-074],trouase activity inhibition,[2]; 1 μM,not inhibited
CC(C)C[C@H](NC(=O)[C@H]1O[C@@H]1C(=O)O)C(=O)NCCCCN=C(N)N [E-64],trouase activity inhibition,[2]; 20 μM E-64,not inhibited
O=C(O)CN(CCN(CC(=O)O)CC(=O)O)CC(=O)O [EDTA],trouase activity inhibition,[2]; 1 mM EDTA,9 fold
COc1cccc2c1C(=O)c1c(O)c3c(c(O)c1C2=O)C[C@@](O)(C(=O)CO)C[C@@H]3O[C@H]1C[C@H](NC(=O)[C@H](CC(C)C)NC(=O)[C@H](C)NC(=O)[C@H](CC(C)C)NC(=O)CCNC(=O)CCCC(=O)O)[C@H](O)[C@H](C)O1 [Gl-βAla-Leu-Ala-Leu-Dox],survival up to 8 days,[3],all animals survived
COc1cccc2c1C(=O)c1c(O)c3c(c(O)c1C2=O)C[C@@](O)(C(=O)CO)C[C@@H]3O[C@H]1C[C@H](NC(=O)[C@@H](N)CC(C)C)[C@H](O)[C@H](C)O1 [Leucyl-Doxorubicin],IC50,HL-60 cells,0.222 µM
COc1cccc2c1C(=O)c1c(O)c3c(c(O)c1C2=O)CC(O)(C(C)=O)CC3OC1CC(NC(=O)C(CC(C)C)NC(=O)C(C)NC(=O)C(CC(C)C)NC(=O)C(C)NC(=O)CCC(=O)O)C(O)C(C)O1 (stereo not drawn) [Suc-Ala-Leu-Ala-Leu-Dnr],extent of cleavage versus the P2 β-alanine compound,[4],0.6 fold
same,extent (rate) of cleavage versus the P2 β-alanine compound,MCF 7/6 cell homogenate,1.3 fold
CC[C@H](C)[C@H](NC(=O)CCC(=O)O)C(=O)N[C@@H](C)C(=O)N[C@@H](CC(C)C)C(=O)N[C@H]1C[C@H](O[C@H]2C[C@](O)(C(=O)CO)Cc3c(O)c4c(c(O)c32)C(=O)c2c(OC)cccc2C4=O)O[C@@H](C)[C@H]1O [Suc-Ile-Ala-Leu-Dox],Rate of hydrolysis (F1),HeLa cell trouase (F1),0
same,Rate of hydrolysis TOP,[5],0
CCC(C)C(NC(=O)CCC(=O)O)C(=O)N(C)C(C)C(=O)NC(CC(C)C)C(=O)NC1CC(OC2CC(O)(C(=O)CO)Cc3c(O)c4c(c(O)c32)C(=O)c2c(OC)cccc2C4=O)OC(C)C1O (stereo not drawn) [Suc-Ile-NmAla-Leu-Dox],Rate of hydrolysis (F1),HeLa cell trouase (F1),0
same,Rate of hydrolysis TOP,[5],0
COc1cccc2c1C(=O)c1c(O)c3c(c(O)c1C2=O)C[C@@](O)(C(=O)CO)C[C@@H]3O[C@H]1C[C@H](NC(=O)CNC(=O)[C@H](C)NC(=O)[C@H](CC(C)C)NC(=O)CCC(=O)O)[C@H](O)[C@H](C)O1 [Suc-Leu-Ala-Gly-Dox],Rate of hydrolysis (F1),HeLa cell trouase (F1),0.4
same,Rate of hydrolysis TOP,[5],0.43
COc1cccc2c1C(=O)c1c(O)c3c(c(O)c1C2=O)C[C@@](O)(C(=O)CO)C[C@@H]3O[C@H]1C[C@H](NC(=O)[C@H](CC(C)C)NC(=O)[C@H](C)NC(=O)[C@H](CC(C)C)NC(=O)CCC(=O)O)[C@H](O)[C@H](C)O1 [Suc-Leu-Ala-Leu-Dox],Rate of hydrolysis (F1),HeLa cell trouase (F1),0.78
same,Rate of hydrolysis TOP,[5],0.67
COc1cccc2c1C(=O)c1c(O)c3c(c(O)c1C2=O)CC(O)(C(=O)CO)CC3OC1CC(NC(=O)C(CC(C)C)NC(=O)C(C)N(C)C(=O)C(CC(C)C)NC(=O)CCC(=O)O)C(O)C(C)O1 (stereo not drawn) [Suc-Leu-NmAla-Leu-Dox],Rate of hydrolysis (F1),HeLa cell trouase (F1),0
same,Rate of hydrolysis TOP,[5],0
COc1cccc2c1C(=O)c1c(O)c3c(c(O)c1C2=O)C[C@@](O)(C(=O)CO)C[C@@H]3O[C@H]1C[C@H](NC(=O)[C@H](CC(C)C)NC(=O)[C@H](C)NC(=O)[C@H](CCSC)NC(=O)CCC(=O)O)[C@H](O)[C@H](C)O1 [Suc-Met-Ala-Leu-Dox],Rate of hydrolysis (F1),HeLa cell trouase (F1),0.49
same,Rate of hydrolysis TOP,[5],0.99
CC[C@H](C)[C@H](NC(=O)CCNC(=O)CCC(=O)O)C(=O)N[C@@H](C)C(=O)N[C@@H](CC(C)C)C(=O)N[C@H]1C[C@H](O[C@H]2C[C@](O)(C(=O)CO)Cc3c(O)c4c(c(O)c32)C(=O)c2c(OC)cccc2C4=O)O[C@@H](C)[C@H]1O [Suc-βAla-Ile-Ala-Leu-Dox],Rate of hydrolysis (F1),HeLa cell trouase (F1),0.025
same,Rate of hydrolysis TOP,[5],<0.03
COc1cccc2c1C(=O)c1c(O)c3c(c(O)c1C2=O)CC(O)(C(=O)CO)CC3OC1CC(NC(=O)C(C)NC(=O)C(C)NC(=O)C(CC(C)C)NC(=O)CCNC(=O)CCC(=O)O)C(O)C(C)O1 (stereo not drawn) [Suc-βAla-Leu-Ala-Ala-Dox],cleavage by TOP (presumed),[5],well cleaved
COc1cccc2c1C(=O)c1c(O)c3c(c(O)c1C2=O)CC(O)(C(=O)CO)CC3OC1CC(NC(=O)CNC(=O)C(C)NC(=O)C(CC(C)C)NC(=O)CCNC(=O)CCC(=O)O)C(O)C(C)O1 (stereo not drawn) [Suc-βAla-Leu-Ala-Gly-Dox],cleavage by TOP,[5],well cleaved
"COc1cccc2c1C(=O)c1c(O)c3c(c(O)c1C2=O)C[C@@](O)(C(=O)CO)C[C@@H]3O[C@H]1C[C@H](NC(=O)[C@H](CC(C)C)NC(=O)[C@H](C)NC(=O)[C@H](CC(C)C)NC(=O)CCNC(=O)CCC(=O)O)[C@H](O)[C@H](C)O1 [Suc-βAla-Leu-Ala-Leu-Dox, succinyl-β-Ala-Leu-Ala-Leu-Dox]",mortality by Day 35,[6]; 75 mg/kg dose group,40%
same,acute toxicity within 24 hours,"[6]; 50, 75 or 100 mg/kg intravenous bolus",no acute toxicity
same,body weight loss (of initial weight),[6]; 75 and 100 mg/kg dose groups,> 20%
same,SD-MTD (mg/kg Dox =),[6]; doxorubicin equivalents,28 mg/kg Dox =
same,toxicity profile compared with doxorubicin,[6]; preliminary observations,"lack of evidence of characteristic GI-toxicity, cardiotoxicity and myleosuppression of doxorubicin"
same,tolerability under repeat-dose levels,LS174T tumors,safe and well-tolerated
same,survival up to 8 days,[3],all animals survived
same,tolerability of dose regimens,LS174T tumor,very well tolerated
same,mice with up to 20% weight loss,"MX-1 tumors; 71 mg/kg group, after Day 46",one out of ten
same,tolerability of dose regimens,"MX-1 tumors; all dose regimens, 5 doses, one every 7 days",very well tolerated
COc1cccc2c1C(=O)c1c(O)c3c(c(O)c1C2=O)CC(O)(C(=O)CO)CC3OC1CC(NC(=O)C(CC(C)C)NC(=O)C(Cc2ccc(O)cc2)NC(=O)C(CC(C)C)NC(=O)CCNC(=O)CCC(=O)O)C(O)C(C)O1 (stereo not drawn) [Suc-βAla-Leu-Tyr-Leu-Dox],% hydrolysis/10 hr,Porcine Kidney CD10,0%
same,Fraction hydrolyzed relative to standard,Porcine Kidney CD10,0
CO[C@@H]1[C@H](OC(=O)/C=C/C=C/C=C/C=C/C(=O)O)CC[C@]2(CO2)[C@H]1[C@@]1(C)O[C@@H]1CC=C(C)C [fumagillin],carcinoma cell trouase inhibition,[2]; concentration not given,not
CC(=O)N[C@@H](CC(C)C)C(=O)N[C@@H](CC(C)C)C(=O)N[C@H](C=O)CCCNC(=N)N [leupeptin],trouase activity inhibition,[2]; 20 μM leupeptin,not inhibited
CC(C)CC(=O)N[C@H](C(=O)N[C@H](C(=O)N[C@@H](CC(C)C)[C@@H](O)CC(=O)N[C@@H](C)C(=O)N[C@@H](CC(C)C)[C@@H](O)CC(=O)O)C(C)C)C(C)C [pepstatin] (Isovaleryl-VV[Sta]A[Sta]-OH),trouase activity inhibition,[2]; 1.5 μM,not inhibited
"Mcc-Pro-Leu-Gly-Pro-D-Lys(DNP) (Mcc-PLGP-{dK(DNP)}) [quenched fluorescent substrate; Mcc = 7-Methoxycoumarin-3-carboxyl, DNP dinitrophenyl, reference compound]",Rate of hydrolysis (F1),HeLa cell trouase (F1),1.5
same,Rate of hydrolysis TOP,[5],1.1
N-[1-(RS)-carboxypropyl-Ala-Ala-Phe-p-aminobenzoate [Cpp-AAF-pAB],inhibition of Suc-βAla-Leu-Ala-Leu-Dox hydrolysis,[7],completely inhibited
aminoethylbenzenesulfonylfluoride,trouase activity inhibition,[2]; 50 μM,not inhibited
aprotinin,trouase activity inhibition,[2]; 4 μg/mL,not inhibited
